From patent publication US20240269304A1, “BCL-XL INHIBITOR ANTIBODY-DRUG CONJUGATES AND METHODS OF USE THEREOF” (Novartis AG, priority 2020, published 2024)
Like-named read-outs stand apart in the source and are kept apart here.

Tests used:
[1] = system: ALL-SIL cells; test: CellTiterGlo (CTG) cell viability, 72 h, ALL-SIL (Example 8); format: cell-based
In short: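 In RPMI with 20% FBS, ALL-SIL cells were exposed for 72 h to serially diluted payloads or ADCs (9 concentrations, triplicate) at 37 °C/5% CO2. Viability was measured as cellular ATP by CellTiterGlo luminescence, with IC50 from four-parameter fit.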

[2] = system: H1650 cells; test: CellTiterGlo (CTG) cell viability, 3D, 120 h, H1650 (Example 8); format: cell-based, human; settings: Homo sapiens, NCI-H1650, H1650 3D
[3] = system: SUDHL8 (DLBCL); test: CellTiter-Glo viability 72 h, single agent or 1/1 combination, SUDHL8 (Example 9); format: cell-based; settings: Homo sapiens, SU-DHL-8, single agent or 1/1 combination as labelled
Method: Cell lines were cultured in the media described above at 37° C. in a humidified atmosphere containing 5% CO2. Cells were seeded in 96 well clear bottom plates (96 well clear-bottom, white, Corning reference 3903) and exposed to the payloads or ADCs at single agents or in 1/1 combinations with vincristine, ABT-199 or compound A2 for 72 h (serially diluted; 9 concentrations each, triplicates). Effects of payloads or ADCs on cell viability were assessed after 3 days of incubation at 37° C./5% CO2 by quantification of cellular ATP levels using CellTiter-Glo reagent (Promega Ref: G7571) at 75 μL reagent/well. All the conditions were tested in triplicates. Luminescence was quantified on a multipurpose plate reader. IC50s were calculated using standard four-parametric curve fitting. […] Each experiment was performed at least twice, with results being reproducible.

[4] = system: corl279; test: In vitro ADC activity with combination partners (Venetoclax, Topotecan), CellTiter-Glo 5 days, corl279 (Example 13); format: cell-based; settings: single agent
Method: (§1) Antibody drug conjugates (ADCs) targeting IgG, B7H3, CD56, DLK1, DLL3, EpCAM, and SEZ6 were tested against cancer cell lines obtained from ATCC (American Type Culture Collection) or from other commercial cell line vendors (cor1279, ncih1436, ncih146, ncih211, ncih524). The cells were cultured in media that is optimal for their growth at 5% CO2, 37° C. in a tissue culture incubator. Prior to seeding for the proliferation assay, the cells were split at least 2 days before the assay to ensure optimal growth density. On the day of seeding, cells were lifted off tissue culture flasks using 0.25% trypsin. Cell viability and cell density were determined using a cell counter (Vi-Cell XR Cell Viability Analyzer, Beckman Coulter). Cells with higher than 85% viability were seeded in white clear bottom 384-well plates (Greiner cat #781098) at a density of 1000 cells per well in 50 μL of standard growth media. Plates were incubated at 37° C. overnight in a tissue culture incubator.
(§2) The ADCs were prepared in standard phosphate buffered solution to desired concentrations. A series of 10 dilutions were made for each ADC. The prepared drug treatments were then added to the cells resulting in final concentrations of 300 nM to 0.015 nM. Combination partners (Venetoclax and Topotecan) were added at fixed concentrations. Acoustic transfer devices (Echo525, Echo550, Beckman Coulter) were used to add the ADCs or combination partners to the cells. Each treatment was tested in triplicate assay plates. Plates were incubated at 37° C. overnight or for 5 days in a tissue culture incubator. The ability of the ADCs to inhibit cell proliferation and survival was assessed using the Promega CellTiter-Glo® proliferation assay. Plates were incubated at room temperature for 20 minutes to stabilize luminescent signals prior to reading using a multimode plate reader (Pherastar, BMG). Luminescent counts of untreated cells were taken the day after seeding (Day 0 readings), and after 5 days of treatment (Day 5 readings). The Day 5 readings of the untreated cells were compared to the Day 0 readings. Assays with at least one cell doubling during the incubation period were considered valid. To evaluate the effect of the drug treatments, luminescent counts from wells containing untreated cells (100% viability) were used to normalize treated samples. The concentrations of treatment required to inhibit 50% of cell growth or survival ([…]) were calculated using a four parameter logistic regression equation.

[5] = system: ncih211; test: In vitro ADC activity with combination partners, CellTiter-Glo 5 days, ncih211 (Example 13); format: cell-based; settings: single agent
Method: as §1, §2

IC50 ([2]; experiment n1, read-out: H1650 3D CTG IC50 n1): 0.31 nM | IC50 ([2]; experiment n2, read-out: H1650 3D CTG IC50 n2): 0.37 nM | IC50 ([2]; mean of n1 and n2, read-out: H1650 3D CTG IC50 Mean of n1 and n2): 0.34 nM | IC50 ([3]; mean, read-out: SUDHL8 (DLBCL) IC50 mean): 0.24 nM | IC50 ([3]; n1, read-out: SUDHL8 (DLBCL) IC50 n1): 0.34 nM | IC50 ([3]; n2, read-out: SUDHL8 (DLBCL) IC50 n2): 0.14 nM
Compound: Cc1c(Nc2nc3ccccc3s2)nnc2c1CCCN2c1ccc(-c2cnn(C[C@]34C[C@]5(C)C[C@](C)(C3)C[C@@](OCCN3CCCC3)(C5)C4)c2C)c(C(=O)O)n1 [P21, 6-[3-(1,3-benzothiazol-2-ylamino)-4-methyl-6,7-dihydro-5H-pyrido[2,3-c]pyridazin-8-yl]-3-[1-[[3,5-dimethyl-7-(2-pyrrolidin-1-ylethoxy)-1-adamantyl]methyl]-5-methyl-pyrazol-4-yl]pyridine-2-carboxylic acid]
IC50 ([1]; experiment n1, read-out: ALLSIL CTG 72 h IC50 nM n1): 0.02 nM | IC50 ([1]; experiment n2, read-out: ALLSIL CTG 72 h IC50 nM n2): 0.05 nM | IC50 ([1]; mean of n1 and n2, read-out: ALLSIL CTG 72 h IC50 nM Mean of n1 and n2): 0.04 nM | GI50 ([4]; Homo sapiens, COR-L279, 120 h): 0.00242 µM | GI Amax corl279 [4]: −88.27 | GI50 ([5]; Homo sapiens, NCI-H211, 120 h): 0.000508 µM | GI Amax ncih211 [5]: −97.26
